Assay results taken from patent US6399782B1, “Benzimidazole inhibitors of fructose 1,6-bisphosphatase” (Metabasis Therapeutics, Inc., priority 1997, dated 2002).

System: Zucker Diabetic Fatty rats
Assay: Inhibition of gluconeogenesis in Zucker Diabetic Fatty rats (14C-bicarbonate incorporation into glucose)
Type: in vivo, rat
Settings: 50 mg/kg bolus via jugular catheter
Description: Nine Zucker Diabetic Fatty rats (16-weeks old, Genetics Models Inc., Indianapolis, Ind.) were fasted at midnight and instrumented with jugular catheters the following morning. […] After 50minutes a bolus of^14 C-sodium bicarbonate ([…]) was administered via the same route. 20 minutes later, the animals were quickly anesthetized with intravenous pentobarbitol and a blood sample (1.5 mL) was taken by cardiac puncture. Blood (0.5 mL) was diluted into 6 mL deionized water and protein precipitated by addition of 1 mL zinc sulfate (0.3 N) and 1 mL barium hydroxide (0.3 N). The mixture was centrifuged (20 minutes, 1000×g) and 5 mL of the resulting supernatant was then combined with 1 g of a mixed bed ion exchange resin (1 part AG 50W-X8, 100-200 mesh, hydrogen form and 2 parts of AG 1-X8, 100-200 mesh, acetate form) to separate ^14C-bicarbonate from ^14C-glucose. The slurry was shaken at room temperature for four hours and then allowed to settle. An aliquot of the supernatant (0.5 mL) was then counted in 5 mL scintillation cocktail.

CCc1cc(F)c(N)c2nc(-c3ccc(P(=O)(O)O)o3)n(CC(C)C)c12 [Compound 12.64] was tested, and the “reduction of incorporation of 14C-bicarbonate into 14C-glucose” value was “approximately 50%”, the “14C-Glucose Produced (cpm/mL blood)” value (14C-bicarbonate after 50 minutes, blood 20 minutes later) was 32,827 ± 6130 cpm/mL blood and the “% Glucose Produced” value (saline = 100) was 49.2%.
